“Also recorded” adds a separate entry of the source. Read-outs that look alike come from different tables or passages of the source.
How the values were obtained:
[1] = system: U87-CXCR4 and U87-WT glioma cells; test: Uptake of radiohalogenated cyclam derivatives in glioma cells; type: cell-based, human; settings: 2.0 h incubation at 37 °C
Description: (§1) Glioma (U87-CXCR4 and U87-WT) and lung cancer (H82 and H69) cell lines with different level of CXCR4 expression were utilized for cell uptakes of all synthesized six radiotracers. Each cell line (0.25 × 10^6 per well) was seeded into 6-well plates, and on the next day, triplicate samples containing approximately 1.85 kBq of *Br or *I-labeled ligand were added and kept incubation at 37 °C for 2.0 h. After washing twice with PBS (4 °C) on the ice-bed, the cells were harvested for measurement with the gamma counter.
(§2) The uptake of 6 different radiolabeled cyclam derivatives was studied in 4 glioma and lung cancer cell lines (Fig. 2). The cell lines expressed both “high” (U87-CXCR4 and H69) and “low” (U87-WT and H82) levels of CXCR4, which were confirmed with IHC staining of CXCR4. […] These promising results from in vitro studies supported proceeding to in vivo PET imaging of CXCR4 expression in tumor-bearing animal models, using the newly developed radiolabeled cyclam derivatives.

[2] = system: intracranial PCNSL-15 CXCR4-expressing tumors; test: PET imaging and autoradiography of intracranial PCNSL-15 tumors; type: in vivo, mice
Description: Animals were administrated 3.7–11.1 MBq of ^76Br- or ^124I-labeled ligands via tail vein or intraspinal injection under 2 % isoflurane anesthesia. At 1 h and 24 h after injection, PET/CT imaging (or PET imaging) was performed with an Inveon PET/CT system. The tumors were centered in the field of view, and the PET acquisition time was 10 min (or longer if needed, until 50 million events are recorded). The image data were normalized to correct for non-uniformity of response of the PET camera, dead-time count losses, positron branching ratio, and physical decay to the time of injection, but no attenuation, scatter, or partial-volume averaging correction was applied. The calibration factor of both PET scanner was measured with a mouse-size phantom composed of a cylinder uniformly filled with an aqueous solution of ^18F of known activity concentration. The acquired PET/CT (or PET) images were analyzed using Inveon Research Workplace v4.2 software (or ASIPro software). Region of interest (ROI) analysis of the acquired images was performed using ASIPro software (Siemens, Malvern, PA, USA), and the observed maximum pixel value (%ID/cc) was utilized to diminish partial volume effects of tumor. The sequential radioactivity measurements (% injected dose/cc) were plotted vs. time of acquisition. […]

[3] = system: U87-CXCR4 s.c. tumors; type: in vivo; settings: for accumulation in U87-CXCR4 s.c. tumors (in words): following i.v. injection; for in vivo de-halogenation / stability on PET imaging: thyroid radioactivity on PET images
Description: (§3) All animal experiments were approved by the Institutional Animal Care and Utilization Committee of MSKCC. Eight human PCNSL xenograft models established at MSK (CG) were available for study. Female Athymic Nude Foxn (6–8 weeks old; ENVIGO) was used for subcutaneous implantation. Cancer cells, including U87-CXCR4, U87-WT, H69, and H82 (5 × 10^6 cells suspended in […] of cell culture medium/Matrigel [BD Bioscience] [v/v 5 1/1]), were inoculated to the shoulder/flank area of the animal. Twenty to 30 days after the inoculation, imaging and tissue sampling were performed when the tumor sizes were between 100 and 350 mm^3. For orthotopic models, U87-CXCR4 cells (1 × 10^5 cells suspended in 10 μl of cell culture medium) in 30-gauge needle were injected into the right frontal cortex (stereotactic coordinates: bregma + 1.7 mm (anterior), lateral − 0.5 mm (right), and at a depth of 2.5 mm). Individuals performing implantation and stereotactic injections were blinded to the experimental design.
Animals were administrated 3.7–11.1 MBq of ^76Br- or ^124I-labeled ligands via tail vein or intraspinal injection under 2 % isoflurane anesthesia. At 1 h and 24 h after injection, PET/CT imaging (or PET imaging) was performed with an Inveon PET/CT system. The tumors were centered in the field of view, and the PET acquisition time was 10 min (or longer if needed, until 50 million events are recorded). The image data were normalized to correct for non-uniformity of response of the PET camera, dead-time count losses, positron branching ratio, and physical decay to the time of injection, but no attenuation, scatter, or partial-volume averaging correction was applied. The calibration factor of both PET scanner was measured with a mouse-size phantom composed of a cylinder uniformly filled with an aqueous solution of ^18F of known activity concentration. The acquired PET/CT (or PET) images were analyzed using Inveon Research Workplace v4.2 software (or ASIPro software). Region of interest (ROI) analysis of the acquired images was performed using ASIPro software (Siemens, Malvern, PA, USA), and the observed maximum pixel value (%ID/cc) was utilized to diminish partial volume effects of tumor. The sequential radioactivity measurements (% injected dose/cc) were plotted vs. time of acquisition.
The imaging and uptake of 6 different radiolabeled cyclam derivatives were studied in subcutaneous tumor-bearing animals (animals bearing either 2 glioma or 2 glioma plus 2 lung cancer tumors) (Fig. 4). […] Radioactivity continued to increase in the U87-CXCR4 tumors but was washed out from the U87 wt (non-CXCR4-exressing) control tumors, over 60 min. […] Biodistribution studies confirmed the imaging studies. Comparing three radiolabeled cyclam derivatives, ^76Br-HZ270-1 was accumulated most avidly by U87-CXCR4 tumors and had the lowest overall systemic organ levels at 24 h post i.v. injection (Table 3). Brain radioactivity was lowest of all organs sampled. Based on these studies, ^76Br-HZ270-1 was selected for imaging intracranial CXCR4-expressing tumors.

[4] = system: H69 and H82 lung cancer cells; test: Uptake of radiohalogenated cyclam derivatives in lung cancer cells; type: cell-based, human; settings: 2.0 h incubation at 37 °C
Description: as §1, §2

[5] = system: intracranial U87-CXCR4 tumors; test: PET imaging of intracranial U87-CXCR4 xenografts; type: in vivo, mice; settings: i.v. injection
Description: All animal experiments were approved by the Institutional Animal Care and Utilization Committee of MSKCC. Eight human PCNSL xenograft models established at MSK (CG) were available for study. Female Athymic Nude Foxn (6–8 weeks old; ENVIGO) was used for subcutaneous implantation. Cancer cells, including U87-CXCR4, U87-WT, H69, and H82 (5 × 10^6 cells suspended in […] of cell culture medium/Matrigel [BD Bioscience] [v/v 5 1/1]), were inoculated to the shoulder/flank area of the animal. Twenty to 30 days after the inoculation, imaging and tissue sampling were performed when the tumor sizes were between 100 and 350 mm^3. […]
Animals were administrated 3.7–11.1 MBq of ^76Br- or ^124I-labeled ligands via tail vein or intraspinal injection under 2 % isoflurane anesthesia. […] The tumors were centered in the field of view, and the PET acquisition time was 10 min (or longer if needed, until 50 million events are recorded). […] The calibration factor of both PET scanner was measured with a mouse-size phantom composed of a cylinder uniformly filled with an aqueous solution of ^18F of known activity concentration. The acquired PET/CT (or PET) images were analyzed using Inveon Research Workplace v4.2 software (or ASIPro software). […] The sequential radioactivity measurements (% injected dose/cc) were plotted vs. time of acquisition. […]

[6] = system: U87-CXCR4, U87-WT, H69 and H82 s.c. tumors; test: Biodistribution in s.c. tumor-bearing animals 24 h after i.v. injection; type: in vivo, mice; settings: n = 3
Description: as §3, with “design. […]” for “design.”
After the last PET imaging time point, the animals were euthanized for tissue dissection. […] The total injected radioactivity per animal was determined from the measured radioactivity in an aliquot of the injectate. Data were expressed as percent of injected dose per gram of tissue (%ID/g).

[7] = molecular target: T1, CXCR4 (Homo sapiens, UniProt P61073); test: Competitive binding assay with U87-CXCR4 cells and 67Ga-Pentixafor; settings: U87-CXCR4 cells, 67Ga-Pentixafor 4.0 nM, 37 °C, 2 h, triplicate; read-out: IC50 affinity
T1 construct: host or cells: U87 glioma cells transduced with CXCR4 (U87-CXCR4)
T1 sequence (P61073 whole entry): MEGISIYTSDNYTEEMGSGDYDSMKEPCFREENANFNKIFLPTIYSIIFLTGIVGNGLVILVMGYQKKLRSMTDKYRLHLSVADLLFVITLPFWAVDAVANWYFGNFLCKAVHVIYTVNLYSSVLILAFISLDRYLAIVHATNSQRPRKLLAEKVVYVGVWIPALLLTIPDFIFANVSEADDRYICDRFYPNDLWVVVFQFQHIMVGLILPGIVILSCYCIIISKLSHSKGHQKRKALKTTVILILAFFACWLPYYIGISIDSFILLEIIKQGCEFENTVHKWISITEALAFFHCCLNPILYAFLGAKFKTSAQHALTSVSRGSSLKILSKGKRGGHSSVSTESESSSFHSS
Description: In order to determine the affinity of the halogenated cyclam derivatives, competitive binding studies were performed with U87-CXCR4 cells using ^67Ga-Pentixafor (CXCR4 receptor ligand). Briefly, triplicate samples containing 0.5 × 10^6 cells pre-seeded in 6-well plate, about 1.8 kBq of ^67Ga-Pentixafor (4.0 nM) and 0.001–1000 nM of the tested ligands (total volume 1.0 ml) were incubated at 37 °C for 2 h. After incubation, the cells were washed with 2 × 1 ml of ice-cold tris-buffered saline (pH 7.4) and then collected for measurement with a WIZARD 1480 gamma counter (PerkinElmer, Waltham, MA). The IC50 values were estimated using a least squares fitting routine (GraphPad Prism 6, San Diego, CA, USA).
Competitive binding assays were performed using U87-CXCR4 cells (expressing high levels of CXCR4) and ^67Ga-Pentixafor [31, 32] as a radioligand.

[8] = system: HIV; settings: cited from earlier work

Compound | Biodistribution, Blood [6] | Biodistribution, Bone [6] | Biodistribution, Brain [6] | Biodistribution, Heart [6] | Biodistribution, Kidneys [6] | Biodistribution, Liver [6] | Biodistribution, Spleen [6] | Biodistribution, U87 CXCR4 tumor [6] | Biodistribution, U87 WT tumor [6] | IC50 [7] | further results
[76Br]c1cc(CNCc2ccccn2)ccc1CN1CCCNCCNCCCNCC1 [^76Br-HZ270-1] | 0.59 ± 0.12 %ID/g | 2.9 ± 0.5 %ID/g | 0.14 ± 0.04 %ID/g | 1.7 ± 0.3 %ID/g | 41.3 ± 24.1 %ID/g | 7.6 ± 1.3 %ID/g | 2.1 ± 0.8 %ID/g | 9.5 ± 1.3 %ID/g | 1.6 ± 0.7 %ID/g | – | U87-CXCR4/U87-wt uptake ratio [1]: 2.96 ± 0.67; radiotracer accumulation in U87-CXCR4 vs U87-WT cells (in words) [1]: highest; localization of radioactivity after spinal-CSF injection ([2]; autoradiography with CXCR4 IHC and H&E, PET 1 and 24 h post injection): not localized to CXCR4-expressing tumor; PET imaging of CXCR4 expression in intracranial PCNSL #15 tumors ([2]; i.v. or spinal-CSF injection): unsuccessful; accumulation in U87-CXCR4 s.c. tumors (in words) [3]: accumulated highest; H69/H82 uptake ratio [4]: 3.93 ± 0.74; radiotracer accumulation in H69 vs H82 cells (in words) [4]: highest; PET imaging of CXCR4 expression in intracranial U87-CXCR4 tumors [5]: unsuccessful; also recorded: Very low levels of radioactivity were visualized
[76Br]c1cc(CN2CCCNCCNCCCNCC2)ccc1CNCc1ccccn1 [^76Br-HZ270-2] | 1.6 ± 0.5 %ID/g | 1.9 ± 0.6 %ID/g | 0.53 ± 0.01 %ID/g | 2.3 ± 0.4 %ID/g | 53.7 ± 12.6 %ID/g | 15.3 ± 3.5 %ID/g | 2.5 ± 0.2 %ID/g | 4.8 ± 1.6 %ID/g | 1.5 ± 0.2 %ID/g | – | –
[131I]c1cc(CN2CCCNCCNCCCNCC2)ccc1CN1CCCNCCNCCCNCC1 [^131I-HZ262] | – | – | – | – | – | – | – | – | – | – | U87-CXCR4/U87-wt uptake ratio [1]: 3.19 ± 1.02; radiotracer accumulation in U87-CXCR4 vs U87-WT cells (in words) [1]: highest; accumulation in U87-CXCR4 s.c. tumors (in words) [3]: accumulated highest; H69/H82 uptake ratio [4]: 3.81 ± 0.40; radiotracer accumulation in H69 vs H82 cells (in words) [4]: highest
Ic1cc(CN2CCCNCCNCCCNCC2)ccc1CN1CCCNCCNCCCNCC1 [HZ262] | – | – | – | – | – | – | – | – | – | 15.9 ± 0.4 nM | –
[124I]c1cc(CNCc2ccccn2)ccc1CN1CCCNCCNCCCNCC1 [^124I-HZ271-1] | 1.5 ± .05 %ID/g | 0.99 ± 0.33 %ID/g | 0.07 ± 0.04 %ID/g | 2.0 ± 0.4 %ID/g | 45.0 ± 5.7 %ID/g | 30 ± 23 %ID/g | 1.3 ± 0.7 %ID/g | 2.0 ± 0.3 %ID/g | 0.96 ± 0.21 %ID/g | – | in vivo de-halogenation / stability on PET imaging [3]: significant decomposition in vivo; Biodistribution, H69 tumor [6]: 2.3 ± 0.2 %ID/g; Biodistribution, H82 tumor [6]: 1.1 ± 1.0 %ID/g; Biodistribution, Lungs [6]: 2.3 ± 1.4 %ID/g
c1cc(CN2CCCNCCNCCCNCC2)ccc1CN1CCCNCCNCCCNCC1 [AMD3100] | – | – | – | – | – | – | – | – | – | – | inhibited HIV infection, concentration range [8]: 1 to 10 nM
Brc1cc(CN2CCCNCCNCCCNCC2)ccc1CN1CCCNCCNCCCNCC1 [HZ261] | – | – | – | – | – | – | – | – | – | 9.47 ± 2.87 nM | –
[124I]c1cc(CN2CCCNCCNCCCNCC2)ccc1CN1CCCNCCNCCCNCC1 [^124I-HZ262] | – | – | – | – | – | – | – | – | – | – | in vivo de-halogenation / stability on PET imaging [3]: greater in vivo stability; in vivo de-halogenation / stability on PET imaging ([3]; listed as 124I-AMD3100): no in vivo de-iodination
c1ccc(CNCc2ccc(CN3CCCNCCNCCCNCC3)cc2)nc1 [AMD3465, reference compound] | – | – | – | – | – | – | – | – | – | 15 ± 5.8 nM | –

From publication PMC7497443, “Imaging CXCR4 Expression with Iodinated and Brominated Cyclam Derivatives” (Molecular Imaging and Biology, 2020)
